Source: ChEMBL document CHEMBL1131627, “Noncalcemic, antiproliferative, transcriptionally active, 24-fluorinated hybrid analogues of the hormone 1alpha, 25-dihydroxyvitamin D3. Synthesis and preliminary biological evaluation” (J Med Chem, 1998)

Target: T1, Vitamin D3 receptor (Rattus norvegicus) (UniProt P13053)
T1 sequence (whole entry): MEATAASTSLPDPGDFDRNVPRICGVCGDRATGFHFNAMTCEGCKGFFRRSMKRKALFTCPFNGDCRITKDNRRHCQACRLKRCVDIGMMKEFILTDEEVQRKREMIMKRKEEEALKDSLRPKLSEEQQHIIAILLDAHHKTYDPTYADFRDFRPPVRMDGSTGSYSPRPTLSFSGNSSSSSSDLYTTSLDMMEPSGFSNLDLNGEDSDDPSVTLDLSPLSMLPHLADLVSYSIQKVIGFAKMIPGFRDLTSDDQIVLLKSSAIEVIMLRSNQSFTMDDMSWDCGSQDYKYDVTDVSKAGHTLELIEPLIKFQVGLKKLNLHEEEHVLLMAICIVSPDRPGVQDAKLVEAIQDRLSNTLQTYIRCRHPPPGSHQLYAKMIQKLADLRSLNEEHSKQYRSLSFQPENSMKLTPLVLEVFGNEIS
Assay: Vitamin D receptor mediated transcriptional activity in rat osteosarcoma ROS 17/2.8 cells

Row | ED50 | SMILES
1 | 200 pM | C=C1/C(=C\C=C2/CCC[C@]3(C)C([C@H](C)CCC(F)(F)C(C)(C)O)=CC[C@@H]23)C[C@H](O)C[C@H]1CO
2 | 50 pM | C=C1/C(=C\C=C2/CCC[C@]3(C)C([C@H](C)CCC(F)(F)C(O)(CC)CC)=CC[C@@H]23)C[C@H](O)C[C@H]1CO
3 | 300 pM | C=C1/C(=C\C=C2/CCC[C@]3(C)[C@@H]([C@H](C)CCCC(C)(C)O)CC[C@@H]23)C[C@@H](O)C[C@@H]1O
